Like-named read-outs stand apart in the source and are kept apart here.
Biological target: T1, EZH2 (Homo sapiens, UniProt Q15910)
T1 construct: GRITS37108
Assay: EZH2 methyltransferase SPA assay (3H-SAM, Hela nucleosomes)
Type: biochemical

T1 sequence (Q15910 whole entry): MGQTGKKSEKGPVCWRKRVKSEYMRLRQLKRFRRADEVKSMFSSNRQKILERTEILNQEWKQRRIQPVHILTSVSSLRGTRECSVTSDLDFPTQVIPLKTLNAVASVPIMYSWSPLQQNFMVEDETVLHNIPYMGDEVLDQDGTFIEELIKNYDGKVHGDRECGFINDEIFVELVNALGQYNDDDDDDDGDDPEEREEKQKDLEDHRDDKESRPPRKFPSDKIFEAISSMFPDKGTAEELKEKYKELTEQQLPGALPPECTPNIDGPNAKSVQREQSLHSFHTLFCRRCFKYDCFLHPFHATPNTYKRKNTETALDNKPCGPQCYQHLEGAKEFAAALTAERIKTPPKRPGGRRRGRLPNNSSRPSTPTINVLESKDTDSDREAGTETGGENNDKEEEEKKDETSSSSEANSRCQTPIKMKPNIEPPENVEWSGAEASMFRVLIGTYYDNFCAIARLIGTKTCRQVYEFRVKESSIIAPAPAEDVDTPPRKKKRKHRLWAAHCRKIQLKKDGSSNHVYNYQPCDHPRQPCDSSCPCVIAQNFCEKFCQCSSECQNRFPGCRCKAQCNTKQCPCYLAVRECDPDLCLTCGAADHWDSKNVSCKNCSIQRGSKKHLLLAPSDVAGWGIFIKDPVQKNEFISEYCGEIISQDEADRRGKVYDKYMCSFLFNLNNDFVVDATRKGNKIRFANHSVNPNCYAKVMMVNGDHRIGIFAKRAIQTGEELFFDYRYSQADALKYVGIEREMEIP
T1 sequence (O75530 whole entry partner): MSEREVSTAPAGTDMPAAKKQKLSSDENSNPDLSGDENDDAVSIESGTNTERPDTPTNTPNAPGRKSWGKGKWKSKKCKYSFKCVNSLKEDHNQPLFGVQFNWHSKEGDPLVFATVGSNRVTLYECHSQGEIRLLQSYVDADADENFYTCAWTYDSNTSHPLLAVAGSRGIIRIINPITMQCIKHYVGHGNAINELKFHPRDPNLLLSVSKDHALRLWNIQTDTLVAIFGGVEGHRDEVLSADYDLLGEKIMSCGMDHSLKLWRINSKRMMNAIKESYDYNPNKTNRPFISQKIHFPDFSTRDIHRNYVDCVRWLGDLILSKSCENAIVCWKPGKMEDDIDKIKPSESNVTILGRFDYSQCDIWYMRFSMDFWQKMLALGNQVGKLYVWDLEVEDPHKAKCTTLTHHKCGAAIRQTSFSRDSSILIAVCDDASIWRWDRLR
T1 sequence (Q15022 whole entry partner): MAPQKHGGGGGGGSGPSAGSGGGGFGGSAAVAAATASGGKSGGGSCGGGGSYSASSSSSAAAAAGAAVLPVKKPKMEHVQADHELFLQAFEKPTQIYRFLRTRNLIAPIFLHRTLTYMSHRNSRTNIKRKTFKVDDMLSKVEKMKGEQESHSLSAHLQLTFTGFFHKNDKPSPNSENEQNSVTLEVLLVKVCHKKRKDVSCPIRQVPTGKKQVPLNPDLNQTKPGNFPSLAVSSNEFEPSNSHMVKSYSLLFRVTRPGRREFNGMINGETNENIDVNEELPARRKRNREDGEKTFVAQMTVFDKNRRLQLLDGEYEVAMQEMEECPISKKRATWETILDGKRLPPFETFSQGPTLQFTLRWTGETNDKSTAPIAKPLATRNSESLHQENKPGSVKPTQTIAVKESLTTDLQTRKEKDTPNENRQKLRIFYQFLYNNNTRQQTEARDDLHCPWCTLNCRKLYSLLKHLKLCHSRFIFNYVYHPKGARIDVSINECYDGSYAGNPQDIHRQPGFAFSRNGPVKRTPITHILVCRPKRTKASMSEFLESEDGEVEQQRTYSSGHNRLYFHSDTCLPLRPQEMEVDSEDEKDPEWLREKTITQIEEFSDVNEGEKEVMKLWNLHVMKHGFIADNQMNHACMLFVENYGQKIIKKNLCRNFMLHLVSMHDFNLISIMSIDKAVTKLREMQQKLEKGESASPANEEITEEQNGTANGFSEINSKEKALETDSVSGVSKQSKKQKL

SMILES	IC50	IC50 (read-out: IC50)
Cc1[nH]c(=O)c(CNC(=O)c2cc(-c3ccncc3)nc3c2cnn3C(C)C)c(C)c1F [Ex 20, N-[(5-Fluoro-4,6-dimethyl-2-oxo-1,2-dihydro-3-pyridinyl)methyl]-1-(1-methylethyl)-6-(4-pyridinyl]-1H-pyrazolo[3,4-b]pyridine-4-carboxamide]	4650 nM	
Cc1cc(C)c(CNC(=O)c2cc(C3CC3)nc3c2c(C)nn3C(C)C)c(=O)[nH]1 [Ex 103, 6-Cyclopropyl-N-[(4,6-dimethyl-2-oxo-1,2-dihydro-3-pyridinyl)methyl]-3-methyl-1-(1-methylethyl)-1H-pyrazolo[3,4-b]pyridine-4-carboxamide]		373 nM
Cc1cc(C)c(CNC(=O)c2cc(-c3ccnc(N4CCOCC4)c3)nc3c2cnn3C(C)C)c(=O)[nH]1 [Ex 66, N-[(4,6-Dimethyl-2-oxo-1,2-dihydro-3-pyridinyl)methyl]-1-(1-methylethyl)-6-[2-(4-morpholinyl)-4-pyridinyl]-1H-pyrazolo[3,4-b]pyridine-4-carboxamide]		81 nM
Cc1cc(C(C)C)c(CNC(=O)c2cc(-c3ccncc3)nc3c2cnn3C(C)C)c(=O)[nH]1 [Ex 12, 1-(1-Methylethyl)-N-{[6-methyl-4-(1-methylethyl)-2-oxo-1,2-dihydro-3-pyridinyl]methyl}-6-(4-pyridinyl)-1H-pyrazolo[3,4-b]pyridine-4-carboxamide]		55 nM
Cc1cc(C)c(CNC(=O)c2cc(-c3ccc(N4CCN(C)CC4)nc3)nc3c2c(C)nn3C(C)(C)C)c(=O)[nH]1 [Ex 87, 1-(1,1-Dimethylethyl)-N-[(4,6-dimethyl-2-oxo-1,2-dihydro-3-pyridinyl)methyl]-3-methyl-6-[6-(4-methyl-1-piperazinyl)-3-pyridinyl]-1H-pyrazolo[3,4-b]pyridine-4-carboxamide]		18 nM
Cc1cc(C)c(CNC(=O)c2cc(N3CCNCC3)nc3c2cnn3C(C)C)c(=O)[nH]1 [Ex 28, N-[(4,6-Dimethyl-2-oxo-1,2-dihydro-3-pyridinyl)methyl]-1-(1-methylethyl)-6-(1-piperazinyl)-1H-pyrazolo[3,4-b]pyridine-4-carboxamide]		348 nM
Cc1cc(C2CC2)c(CNC(=O)c2cc(-c3ccncc3)nc3c2cnn3C(C)C)c(=O)[nH]1 [Ex 18, N-[(4-Cyclopropyl-6-methyl-2-oxo-1,2-dihydro-3-pyridinyl)methyl]-1-(1-methylethyl)-6-(4-pyridinyl)-1H-pyrazolo[3,4-b]pyridine-4-carboxamide]		40 nM
Cc1cc(C)c(CNC(=O)c2cc(C3CC3)nc3c2c(C)nn3C(C)(C)C)c(=O)[nH]1 [Ex 107, 6-Cyclopropyl-1-(1,1-dimethylethyl)-N-[(4,6-dimethyl-2-oxo-1,2-dihydro-3-pyridinyl)methyl]-3-methyl-1H-pyrazolo[3,4-b]pyridine-4-carboxamide]		75 nM
Cc1cc(C)c(CNC(=O)c2cc(-c3ccc4[nH]c(=O)[nH]c4c3)nc3c2c(C)nn3C(C)C)c(=O)[nH]1 [Ex 77, N-[(4,6-dimethyl-2-oxo-1,2-dihydro-3-pyridinyl)methyl]-3-methyl-1-(1-methylethyl)-6-(2-oxo-2,3-dihydro-1H-benzimidazol-5-yl)-1H-pyrazolo[3,4-b]pyridine-4-carboxamide]		52 nM
Cc1cc(C2CC2)[nH]c(=O)c1CNC(=O)c1cc(C2CC2)nc2c1cnn2C(C)C [Ex 19, 6-Cyclopropyl-N-[(6-cyclopropyl-4-methyl-2-oxo-1,2-dihydro-3-pyridinyl)methyl]-1-(1-methylethyl)-1H-pyrazolo[3,4-b]pyridine-4-carboxamide]		3370 nM
Cc1cc(C2CCCCC2)c(CNC(=O)c2cc(C3CC3)nc3c2cnn3C(C)C)c(=O)[nH]1 [Ex 16, N-[(4-Cyclohexyl-6-methyl-2-oxo-1,2-dihydro-3-pyridinyl)methyl]-6-cyclopropyl-1-(1-methylethyl)-1H-pyrazolo[3,4-b]pyridine-4-carboxamide]		105 nM
Cc1cc(C)c(CNC(=O)c2cc(-c3ccc(N4CCOCC4)nc3)nc3c2c(C)nn3C(C)C)c(=O)[nH]1 [Ex 83, N-[(4,6-Dimethyl-2-oxo-1,2-dihydro-3-pyridinyl)methyl]-3-methyl-1-(1-methylethyl)-6-[6-(4-morpholinyl)-3-pyridinyl]-1H-pyrazolo[3,4-b]pyridine-4-carboxamide]		43 nM
CNS(=O)(=O)c1ccc(-c2cc(C(=O)NCc3c(C)cc(C)[nH]c3=O)c3cnn(C(C)C)c3n2)cn1 [Ex 97, N-[(4,6-Dimethyl-2-oxo-1,2-dihydro-3-pyridinyl)methyl]-6-{6-[(methylamino)sulfonyl]-3-pyridinyl}-1-(1-methylethyl)-1H-pyrazolo[3,4-b]pyridine-4-carboxamide]		55 nM
Cc1cc(C)c(CNC(=O)c2cc(N3CCOCC3)nc3c2cnn3C(C)C)c(=O)[nH]1 [Ex 26, N-[(4,6-Dimethyl-2-oxo-1,2-dihydro-3-pyridinyl)methyl]-1-(1-methylethyl)-6-(4-morpholinyl)-1H-pyrazolo[3,4-b]pyridine-4-carboxamide]		673 nM

The remaining lines, values ahead:

IC50	IC50 (read-out: IC50)	SMILES
	581 nM	Cc1cc(C)c(CNC(=O)c2cc(-c3ccco3)nc3c2cnn3C(C)C)c(=O)[nH]1 [Ex 62, N-[(4,6-Dimethyl-2-oxo-1,2-dihydro-3-pyridinyl)methyl]-6-(2-furanyl)-1-(1-methylethyl)-1H-pyrazolo[3,4-b]pyridine-4-carboxamide]
	489 nM	Cc1cc(C)c(CNC(=O)c2cc(NCCNc3ccccn3)nc3c2cnn3C(C)C)c(=O)[nH]1 [Ex 95, N-[(4,6-Dimethyl-2-oxo-1,2-dihydro-3-pyridinyl)methyl]-1-(1-methylethyl)-6-{[2-(2-pyridinylamino)ethyl]amino}-1H-pyrazolo[3,4-b]pyridine-4-carboxamide]
	171 nM	Cc1cc(C)c(CNC(=O)c2cc(-c3cnc(N)nc3)nc3c2cnn3C(C)C)c(=O)[nH]1 [Ex 72, 6-(2-Amino-5-pyrimidinyl)-N-[(4,6-dimethyl-2-oxo-1,2-dihydro-3-pyridinyl)methyl]-1-(1-methylethyl)-1H-pyrazolo[3,4-b]pyridine-4-carboxamide]
	260 nM	Cc1cc(C)c(CNC(=O)c2cc(NCc3ccncc3)nc3c2cnn3C(C)C)c(=O)[nH]1 [Ex 55, N-[(4,6-Dimethyl-2-oxo-1,2-dihydro-3-pyridinyl)methyl]-1-(1-methylethyl)-6-[(4-pyridinylmethyl)amino]-1H-pyrazolo[3,4-b]pyridine-4-carboxamide]
	475 nM	Cc1cc(C)c(CNC(=O)c2cc(Cl)nc3c2cnn3C(C)C)c(=O)[nH]1 [Ex 1, 6-Chloro-N-[(4,6-dimethyl-2-oxo-1,2-dihydro-3-pyridinyl)methyl]-1-(1-methylethyl)-1H-pyrazolo[3,4-b]pyridine-4-carboxamide]
	705 nM	C=CCNc1cc(C(=O)NCc2c(C)cc(C)[nH]c2=O)c2cnn(C(C)C)c2n1 [Ex 5, N-[(4,6-Dimethyl-2-oxo-1,2-dihydro-3-pyridinyl)methyl]-1-(1-methylethyl)-6-(2-propen-1-ylamino)-1H-pyrazolo[3,4-b]pyridine-4-carboxamide]
	115 nM	Cc1cc(C)c(CNC(=O)c2cc(-c3ccnc(N)c3)nc3c2cnn3C(C)C)c(=O)[nH]1 [Ex 49, 6-(2-Amino-4-pyridinyl)-N-[(4,6-dimethyl-2-oxo-1,2-dihydro-3-pyridinyl)methyl]-1-(1-methylethyl)-1H-pyrazolo[3,4-b]pyridine-4-carboxamide]
